Reference: article PMC4381330, “Identification of a novel selective agonist of PPARγ with no promotion of adipogenesis and less inhibition of osteoblastogenesis” (Scientific Reports, 2015)

Assays:
LXRα = biological target: T1, LXRα (Homo sapiens, UniProt Q13133); assay: Receptor-specific transactivation, GAL4-LBD reporter in HEK293T cells; format: cell-based; conditions: 30 μM F12016
T1 construct: expressed in transfected cells; host or cells: HEK293T
T1 sequence (Q13133 209-447 limits assumed): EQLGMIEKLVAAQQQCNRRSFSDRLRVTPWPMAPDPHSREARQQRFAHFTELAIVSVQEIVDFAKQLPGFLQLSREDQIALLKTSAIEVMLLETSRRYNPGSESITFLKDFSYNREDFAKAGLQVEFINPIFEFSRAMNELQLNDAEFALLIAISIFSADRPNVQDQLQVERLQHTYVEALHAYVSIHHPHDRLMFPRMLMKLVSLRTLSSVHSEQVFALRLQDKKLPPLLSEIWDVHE
Description: (§1) HEK293T cells were cotransfected with a GAL4-pGL4-luc reporter and plasmids encoding various nuclear receptor LBDs fused with the GAL4 DNA-binding domain. […] LXR, liver X receptor; RXR, retinoid X receptor.
(§2) The determination of nuclear receptor activation was performed as previously. Briefly, HEK293T cells were transfected with GAL4-pGL4-luc reporter plasmid and pBIND-PPARγ-LBD expression plasmid using Lipofectamine 2000 (Invitrogen) for 6 h before treatment with compounds for 20–24 h. Activity was determined by the Luciferase Assay System (Promega).

LXRβ = biological target: T2, LXRβ (Homo sapiens, UniProt P55055); assay: as above; format: cell-based; conditions: 30 μM F12016
T2 construct: expressed in transfected cells; host or cells: HEK293T
T2 sequence (P55055 222-460 limits assumed): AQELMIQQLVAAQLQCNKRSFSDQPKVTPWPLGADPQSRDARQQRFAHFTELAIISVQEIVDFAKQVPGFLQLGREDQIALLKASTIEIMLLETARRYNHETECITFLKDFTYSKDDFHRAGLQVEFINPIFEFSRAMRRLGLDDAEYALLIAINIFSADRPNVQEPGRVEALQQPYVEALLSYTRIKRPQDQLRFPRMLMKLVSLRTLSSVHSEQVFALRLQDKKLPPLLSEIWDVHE
Description: as §1, §2

PPARα = biological target: T3, PPARα (Homo sapiens, UniProt Q07869); assay: as above; format: cell-based; conditions: 30 μM F12016
T3 construct: expressed in transfected cells; host or cells: HEK293T
T3 sequence (Q07869 239-466 limits assumed): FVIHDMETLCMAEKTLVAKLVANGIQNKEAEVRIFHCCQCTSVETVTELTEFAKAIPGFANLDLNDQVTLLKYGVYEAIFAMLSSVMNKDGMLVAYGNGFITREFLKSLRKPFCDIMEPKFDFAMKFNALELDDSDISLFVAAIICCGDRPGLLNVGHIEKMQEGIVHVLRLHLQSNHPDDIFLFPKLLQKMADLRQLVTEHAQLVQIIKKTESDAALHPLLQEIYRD
Description: as §1, §2

RXR = assay: as above; format: cell-based; conditions: 30 μM F12016
Description: as §1, §2

[1] = biological target: T4, human PPARγ-LBD (coactivator peptide recruitment) (Homo sapiens, UniProt P37231); assay: LanthaScreen TR-FRET coactivator peptide recruitment assay; format: biochemical
T4 construct: incubated with GST-fused human PPARγ-LBD, terbium-labeled anti-GST antibody; purchased Invitrogen
T4 sequence (P37231 238-503 limits assumed): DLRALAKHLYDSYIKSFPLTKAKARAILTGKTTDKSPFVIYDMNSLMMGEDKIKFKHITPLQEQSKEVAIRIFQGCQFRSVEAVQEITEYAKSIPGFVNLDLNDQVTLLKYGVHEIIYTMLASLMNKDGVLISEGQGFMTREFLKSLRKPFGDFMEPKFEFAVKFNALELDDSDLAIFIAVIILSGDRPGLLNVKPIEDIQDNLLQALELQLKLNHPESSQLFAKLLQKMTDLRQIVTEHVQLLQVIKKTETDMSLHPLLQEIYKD
Description: PPARγ coregulator peptide interaction assay was performed by the LanthaScreen TR-FRET PPARγ Coactivator Assay Kit (Invitrogen) according to the manufacturer's instructions. Serial concentrations of compounds were incubated with GST-fused human PPARγ-LBD, terbium-labeled anti-GST antibody and fluorescein-labeled peptide for 4 h. The measurement and data calculation were as above.

3T3-L1 preadipocytes = assay: Adipogenic differentiation of 3T3-L1 preadipocytes (Oil red O, triglyceride content); format: cell-based, mouse
Description: (§3) 3T3-L1 preadipocytes were grown to confluency in DMEM containing 10% CS. At 2 days post-confluency, the cells were stimulated with differentiation medium (DMEM containing 10% FBS, 10 μg/mL insulin, 1 μM dexamethasone, and 0.5 mM IBMX) for 48 h. Then, the cells were exposed in post-differentiation-maintaining medium (DMEM containing 10% FBS and 10 μg/mL insulin) for a further 48 h, which was replaced with expansion medium (DMEM containing 10% FBS) every 2 days after then. Compounds were added to the post-differentiation and expansion medium. At day 4, the cells were harvested for RNA preparation. At Day 8, the cells were fixed with 10% formaldehyde and stained with Oil red O solution. After washing with water, photos were taken. Solubilized dye was quantified at 550 nm. In addition, total triglyceride of the cells was measured by a total TG measurement kit (Applygene, China). Experiments were performed at least three times.

[2] = tested on: PPARγ target genes in differentiating 3T3-L1 cells; assay: Expression of adipogenesis-related and PPARγ-responsive genes in differentiating 3T3-L1 adipocytes (qPCR); format: cell-based, mouse
Description: as §3
(§4) Total RNA was extracted using TRIzol reagent (Invitrogen). First-strand cDNA was synthesized from the total RNA using a reverse transcriptional kit (TransGen). Quantitative PCR with SYBR Green (Roche Diagnostics, Lewes, UK) was performed on a Stratagene MX3000P real-time PCR system (Agilent). Melting curves were obtained, and the specificity of PCR products was checked on agarose gels. Relative mRNA expression was determined by the ΔΔCt method and normalized to GAPDH mRNA levels.

[3] = tested on: osteoblast marker genes in MC3T3-E1 cells; assay: Expression of osteoblast marker genes in MC3T3-E1 cells (qPCR); format: cell-based
Description: MC3T3-E1 cells were cultured in α-MEM to confluency in 24-well plates and then cultured in differentiation medium (α-MEM supplemented with 200 μM ascorbic acid and 10 mM β-glycerophosphate) for 7, 14, and 21 days, which was replaced every 3 days. The cells were treated with DMSO, rosiglitazone, or F12016 at the start of differentiation. At day 8, 15 and 22, total RNA was isolated, and real-time PCR was performed as described below.
as §4

Question: For “2-[2-(1, 2-dimethyl-1H-indol-3-yl)-2-oxo-acetylamino]-benzamide [Compound F12016]”, which “transactivation of LXRα” value (LXRα) is on record?
Answer: no effects

Question: What about the “transactivation of LXRβ” value (LXRβ) of the same substance?
Answer: no effects

Question: And the “transactivation of PPARα” value (PPARα)?
Answer: no effects

Question: What about the “transactivation of RXR” value (RXR) of the same substance?
Answer: no effects

Question: And the “EC50/IC50 CBP” value ([1]; cofactor peptide CBP)?
Answer: 0.349 µM

Question: What about the “Efficacy CBP” value ([1]; cofactor peptide CBP, maximum recruitment relative to rosiglitazone) of the same substance?
Answer: 10%

Question: What about the “EC50/IC50 PGC-1α” value ([1]; cofactor peptide PGC-1α) of the same substance?
Answer: 21.81 µM

Question: And the “Efficacy PGC-1α” value ([1]; cofactor peptide PGC-1α, maximum recruitment relative to rosiglitazone)?
Answer: 57%

Question: What about the “EC50/IC50 RAP250” value ([1]; cofactor peptide RAP250) of the same substance?
Answer: 5.765 µM

Question: What about the “Efficacy RAP250” value ([1]; cofactor peptide RAP250, maximum recruitment relative to rosiglitazone) of the same substance?
Answer: 25%

Question: And the “EC50/IC50 SRC1” value ([1]; cofactor peptide SRC1)?
Answer: 17.65 µM

Question: What about the “Efficacy SRC1” value ([1]; cofactor peptide SRC1, maximum recruitment relative to rosiglitazone) of the same substance?
Answer: 26%

Question: What about the “EC50/IC50 SRC3” value ([1]; cofactor peptide SRC3) of the same substance?
Answer: 15.06 µM

Question: And the “Efficacy SRC3” value ([1]; cofactor peptide SRC3, maximum recruitment relative to rosiglitazone)?
Answer: 23%

Question: And the “EC50/IC50 TIF2” value ([1]; cofactor peptide TIF2)?
Answer: 6.437 µM

Question: What about the “Efficacy TIF2” value ([1]; cofactor peptide TIF2, maximum recruitment relative to rosiglitazone) of the same substance?
Answer: 17%

Question: What about the “EC50/IC50 TRAP220” value ([1]; cofactor peptide TRAP220) of the same substance?
Answer: 5.132 µM

Question: What about the “Efficacy TRAP220” value ([1]; cofactor peptide TRAP220, maximum recruitment relative to rosiglitazone) of the same substance?
Answer: 17%

Question: What about the “recruitment of SRC 1 and 3 and RAP250 to PPARγ” value ([1]; span over the three cofactors) of the same substance?
Answer: 22–27 % of rosiglitazone

Question: And the “intracellular triglyceride (TG) content” value (3T3-L1 preadipocytes; 6 days of stimulation)?
Answer: significantly reduced TG accumulation compared with rosiglitazone

Question: And the “TG content of differentiating adipocytes at 30 μM compared with 10 μM” value (3T3-L1 preadipocytes; F12016 30 μM vs 10 μM)?
Answer: significantly less than that of 10 μM

Question: And the “lipid accumulation / intracellular lipid droplets (Oil red O staining)” value (3T3-L1 preadipocytes; RGZ 0.1, 1, 10 μM, F12016 1, 10, 30 μM)?
Answer: significantly reduced potency to form intracellular lipid droplets

Question: What about the “lipid droplet size, F12016 vs rosiglitazone” value (3T3-L1 preadipocytes; supplementary Figure 2) of the same substance?
Answer: no significant difference

Question: What about the “AdipQ mRNA expression” value [2] of the same substance?
Answer: increased AdipQ mRNA expression

Question: What about the “mRNA levels of 11β-HSD1” value [2] of the same substance?
Answer: similarly decreased the mRNA levels

Question: What about the “transcription of Pdk4” value [2] of the same substance?
Answer: decreased transcription

Question: And the “expression of fatty acid synthase (Fasn)” value ([2]; both compounds to a similar extent)?
Answer: upregulated expression

Question: What about the “expression of adipogenesis-related genes (CEBP/α, PEPCK, FABP4, CD36, Gyk, Elvol3, Cox7a1)” value ([2]; compared with rosiglitazone) of the same substance?
Answer: induced much less expression

Question: What about the “induction of lipoprotein lipase (LPL)” value ([2]; compared with rosiglitazone) of the same substance?
Answer: less than that induced by rosiglitazone

Question: And the “expression of Alp and Col1” value ([3]; 7 days)?
Answer: increased expressions of Alp and Col1

Question: And the “expression of RANKL” value ([3]; 7 days, rosiglitazone 1 μM, compared with control)?
Answer: not significantly changed

Question: And the “expression of Ibsp and Bglap” value ([3]; Ibsp 14 days, Bglap 21 days)?
Answer: did not show any significant reductions
